Results on one compound are retold here after patent publication US12685715B2, “Compositions, methods of treatment, and containers including compositions” (University of Florida Research Foundation, Inc., priority 2018, dated 2026).

The nature of series [1]: Cysteamine degradation in anti-oxidant formulations, vials exposed to atmospheric oxygen (UV-vis). In kind it is physicochemical.
Experimental: All formulations containing hydrophilic components (SUR, CAT) were prepared by stirring at room temperature till dissolution. All formulations were tested for pH and adjusted to 7.4 if required. For each formulation, 20 mL of liquid was placed into a 22 mL, flat bottom, 28 mm diameter, glass vial (Fisher Scientific). Each formulation was purged with nitrogen gas for two hours to minimize dissolved oxygen. After purging, 2.0±0.1 mg cysteamine was added to each formulation to achieve a concentration of 0.1 mg mL^−1 which is about one-fourth of the concentration in the commercial formulation. We are interested in the relative changes in degradation rates by addition of anti-oxidants so reducing concentration will not be a significant factor. […] The vials were then left exposed to atmospheric oxygen to ensure that the degradation rates were not limited by availability of oxygen. The formulations were periodically sampled for measurement of UV spectra in 190-350 nm range (Thermo Scientific™ GENESYS™ 10S UV-Vis Spectrophotometer). The spectra of cysteamine and the oxidation product cystamine are sufficiently different so the combined spectra obtained from the samples can be separated via a least square fit to yield the concentrations of both components. After analyzing, the solution was returned to the vial to conserve total volume. […]
A short description of series [2]: Cysteamine degradation in eye drop bottles with OMAC film barrier / combined approach, drops withdrawn periodically. The series is classed as physicochemical. The settings on record: calculated, 30 μL drop.
Experimental: To explore the effect of any alterations in packaging, it was considered more realistic to use a commercial eye drop bottle. […] As these systems were in a nearly closed system, evaporation was not a concern, so they could be run for longer durations of time compared to the anti-oxidant experiments performed open to atmosphere. At certain time intervals, the screw cap was removed, and the bottle was squeezed to eject one drop. The mass of the drop was measured, and the drop was diluted 100 fold by PBS. This diluted solution was then measured by UV-vis spectrophotometry to determine the degradation of cysteamine.
Catalase (0.15%) was added to the cysteamine solution, which was nitrogen purged for an additional half hour. The solution was then placed in the bottle and topped with a 1.0 cm layer of 50% (v/v) soybean oil and 50% vitamin E. The bottle was then capped and tested for degradation of cysteamine while periodically withdrawing eye drop samples, as described in section 2.2.2.2.

For `NCCS` [cysteamine, Cysteamine], the degradation rate came out at 126 ± 4 µg/h in series [1] (0.1 mg mL^−1 of cysteamine) and 132 ± 15 µg/h in series [1] (4.4 mg mL^−1 of cysteamine). Also, the “degradation rate from air entering the bottle after each drop” value in series [2] was “roughly 10 μg/hr”.
